Tested on: D54 ERlucT glycosylation luciferase reporter, luminescence, 24 h
Test: blockers of NLG process in reporter cells – D54 ERlucT cells, luminescence, cherry-picks, dose response (AID 624491);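 also: signal gain reflects blocked N-linked glycosylation of a luciferase reporter; actives raise luciferase signal so AC26 marks activators of the reporter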

| SMILES | AC26 |
| --- | --- |
| Cc1ccnc2nc(C(=O)Nc3cc(Cl)ccc3N3CCOCC3)nn12 | 659 nM |
| C=CCn1c(SCc2c(C)noc2C)nc2ccccc2c1=O | 163 nM |
| Cc1cccc2c(C(=O)N3CCN(c4ccccc4)CC3)cc(-c3ccncc3)nc12 | 198 nM |
| OC1CCCN(Cc2c3ccccc3cc3ccccc23)C1 (stereo not drawn) | 8750 nM |
| COc1ccc(S(=O)(=O)NCc2ccccn2)cc1NC(=O)c1ccccc1 | 234 nM |
| C[C@H](CO)N1C[C@H](C)[C@@H](CN(C)S(=O)(=O)c2cccs2)Oc2c(NC(=O)Cc3ccccc3)cccc2C1=O | 2250 nM |
| CCOC(=O)c1ccc(Oc2cc(C)nc(SC)n2)cc1 | 1720 nM |
| O=C(O)c1ccc(N/N=C/c2ccc(-c3ccc(Cl)cc3Cl)o2)cc1 | 5330 nM |
| Cn1c(=O)[nH]c(=O)c2c1nc(N1CCN(Cc3ccccc3)CC1)n2CCCc1ccccc1 | 436 nM |
| C[C@H](O)[C@@H]1CN2CCc3c([nH]c4ccccc34)[C@@H]2C[C@@H]1N(C)C(=O)c1ccco1 | 408 nM |
| CCN(CC)CCNc1nc2cc(OC)c(OC)cc2c2nc(-c3ccccc3)nn12 | 1860 nM |
| COC(=O)c1cn(C(=O)/C=C/c2ccc(OC)c(OC)c2)c2ccccc12 | 1640 nM |
| CCOC(=O)/C(=C/c1c(C)n(C)c2ccc([N+](=O)[O-])cc12)C(C)=O | 4230 nM |
| C[C@@H](NC(=O)c1ncn2c1c(=O)[nH]c1ccc(Br)cc12)c1ccccc1 | 2060 nM |
| COc1ccc(NC(=O)COC(=O)/C=C/C(=O)OCC(=O)Nc2ccc(OC)c(Cl)c2)cc1Cl | 16600 nM |
| CNc1ccc(/C=C/C(=O)c2cccc3ccccc23)cc1[N+](=O)[O-] | 2810 nM |
| Cc1c(C(=O)Nc2ccc3oc(-c4cccnc4)nc3c2)oc2ccccc12 | 8840 nM |
| COc1cccc(-c2cnc3c(NC=O)cc(-c4cc(C)c(O)c(C)c4)cn23)c1 | 2140 nM |
| CC(=O)c1ccc(N2CCN(C(=O)c3cccc(Oc4ccccc4)c3)CC2)cc1 | 1140 nM |
| O=C1OCC2=C1C(c1ccc3c(c1)OCO3)c1cc3c(cc1O2)OCO3 (stereo not drawn) | 661 nM |
| Cc1ccc(CCC(=O)Nc2ncc(Cc3cc(Cl)ccc3Cl)s2)o1 | 476 nM |
| CCN(CC)S(=O)(=O)c1cccc(NC(=O)CN2C(=O)NC3(CCC(C)CC3)C2=O)c1 (stereo not drawn) | 876 nM |

| SMILES | AC26 |
| --- | --- |
| O=C(NCCCn1ccnc1)c1cc(-c2ccccc2)on1 | 3170 nM |
| Cc1ccc(C(c2cc(Cl)c3cccnc3c2O)N2CCN(C)CC2)cc1 (stereo not drawn) | 1280 nM |
| CC(C)c1ccc(OCc2ccc(C(=O)N3CCCC3)o2)cc1 | 4230 nM |
| CC(C)Oc1ccc(F)cc1-c1cc(C(=O)Nc2ccc(C(C)(C)C)cc2)[nH]n1 | 2040 nM |
| CCOC(=O)c1ccc(/C=C2/C=C(c3ccccc3)N(c3ccc(Cl)c(C(=O)O)c3)C2=O)cc1 | 1840 nM |
| C[C@@H]1[C@@H](Sc2ccccc2)CC(=O)O[C@@H]1c1ccc(-c2ccccc2)cc1 | 920 nM |
| Cn1cnc([N+](=O)[O-])c1Sc1nc2ccccc2[nH]1 | 797 nM |
| CNC(=O)c1cccn(Cc2cc(C(F)(F)F)cc(C(F)(F)F)c2)c1=O | 16000 nM |
| COc1ccc(NC(=O)C(=O)NCC2CCCN2S(=O)(=O)c2cccs2)cc1 (stereo not drawn) | 5020 nM |
| O=C(N/N=C/c1cccs1)c1cc(-c2cccc3ccccc23)n[nH]1 | 4700 nM |
| COc1ccc(/C=C2\SC(=O)N(CCNC(=O)C3=COCCO3)C2=O)cc1 | 658 nM |
| Cc1ccc(S(=O)(=O)Nc2ccc3c(c2)n(C)c(=O)n3C)cc1 | 1460 nM |
| Cn1ncc2c(O/N=C(\N)c3ccc(C(F)(F)F)cc3)ncnc21 | 445 nM |
| O=c1[nH]c(=O)n(C2CC(O)C(CO)O2)cc1Br (stereo not drawn) | 1490 nM |
| CN1C(=O)C(=Cc2sc(=O)n(-c3ccccc3)c2N(C)C)C(=O)N(C)C1=O | 5320 nM |
| CN(C)/N=C/c1ccc(Sc2ccc([N+](=O)[O-])cc2[N+](=O)[O-])o1 | 1880 nM |
| COc1ccc(NC(=O)CSc2c3c(nc4ccccc24)CCCC3)c(OC)c1 | 9240 nM |
| CC1(C(=O)Nc2ccc(Cl)cc2)Cc2c(-c3cccc(C(N)=O)c3)ccnc2O1 (stereo not drawn) | 15400 nM |
| Cc1ccc(COc2ccccc2-c2cc(C(=O)N/N=C/c3cccnc3)[nH]n2)cc1 | 5260 nM |
| Cc1onc(C(=O)Nc2cccc(C(F)(F)F)c2)c1[N+](=O)[O-] | 2720 nM |
| CC1(C(=O)NCCC(F)(F)F)Cc2c(-c3cccc(C(F)(F)F)c3)ccnc2O1 (stereo not drawn) | 15200 nM |
| Cn1cc(C(=O)N/N=C/C(Br)=C/c2ccccc2)ccc1=O | 2850 nM |

| SMILES | AC26 |
| --- | --- |
| Cn1cccc1/C=C1\C(=O)NC(=O)N(Cc2ccccc2Cl)C1=O | 2490 nM |
| COc1ccccc1-n1cnc2cc(NCc3ccco3)ccc21 | 1510 nM |
| COc1ccc(NC(=O)C(=O)NCCC2CCCCN2S(=O)(=O)c2ccccc2)cc1 (stereo not drawn) | 5680 nM |
| O=C(CN1CCC(O)(c2cccc(F)c2)CC1)NCCc1c[nH]c2ccccc12 | 1150 nM |
| O=C1CC(c2ccccc2F)c2cc3c(cc2N1)CCC3 (stereo not drawn) | 938 nM |
| COc1ccc(OC)c(-c2nnc3n2N=C(c2ccc(OC)c(OC)c2)CS3)c1 | 4160 nM |
| O=C(N/N=C/c1ccc(Cl)cc1)c1cc(-c2cccnc2)nc2ccccc12 | 417 nM |
| Cc1nc([N+](=O)[O-])c(Br)n1Cc1ccc(Cl)c(Cl)c1 | 885 nM |
| Cc1nnc2c3ccccc3c(-c3ccccc3)nn12 | 2870 nM |
| Cc1cc(C)cc(NC(=O)CCn2c(=O)c3cccn3c3ccccc32)c1 | 4950 nM |
| CCN(CC)CCN1C(=O)c2cccc3cc(N)cc(c23)C1=O | 1140 nM |
| CCn1ncc(C2=NOC(C(=O)NCc3ccccc3)C2)c1C (stereo not drawn) | 413 nM |
| Cn1c(=O)c2cc(NC(=O)CCc3ccccc3)ccc2n1-c1ccccc1F | 1780 nM |
| COc1ccc(/C=N/NC(=O)c2cccnc2)cc1COc1ccc(NC(C)=O)cc1 | 1990 nM |
| Cc1ccc(C(=O)c2coc3c2C(=O)C(=O)c2ccccc2-3)cc1 | 4630 nM |
| CCN(CC)S(=O)(=O)c1cccc(C(=O)OCC(=O)Nc2ccc3c(c2)c2ccccc2n3CC)c1 | 4110 nM |
| CCn1c(=S)[nH]c2cc(S(=O)(=O)N3CCCCC3)ccc21 | 1090 nM |
| CCOC(=O)c1ccccc1NS(=O)(=O)c1ccc(OC)cc1 | 16000 nM |
| Nc1[nH]nc2nc(NCc3ccccc3)c3c(c12)CCN(Cc1ccccc1)C3 | 1030 nM |
| O=C(Nc1ccncc1)C1CCCN(S(=O)(=O)c2cccc3cccnc23)C1 (stereo not drawn) | 579 nM |
| O=C(Cc1ccc(-c2ccccc2)cc1)NCc1ccccc1 | 27.8 nM |
| c1ccc(N=Nc2ccc3cccccc2-3)cc1 | 2060 nM |

| SMILES | AC26 |
| --- | --- |
| CC(=O)Nc1cccc(-c2ccnc3c2CC(C(=O)Nc2ccc4c(c2)OCO4)O3)c1 (stereo not drawn) | 4550 nM |
| Cc1ccc(Oc2ccc(S(=O)(=O)N3CCOCC3)cc2C(N)=O)c(-n2nc3ccccc3n2)c1 | 2770 nM |
| CN(C)CCc1cc2c(c3c1ccc1ccccc13)OCO2 | 5320 nM |
| CC(Oc1ccc2c(c1)c1ccnc3c4ccccc4c(=O)n2c13)C(=O)NCCN1CCOCC1 (stereo not drawn) | 6140 nM |
| COc1cc(C(=O)N/N=C/c2ccc3c(c2)c2ccccc2n3C)ccc1O | 4070 nM |
| Cc1ccc(-c2nc(NCCN(C)C)c3ccccc3n2)cc1 | 4940 nM |
| COc1ccccc1NC(=O)Cn1nnc(C(=O)NCc2cccs2)c1N | 867 nM |
| O=c1[nH]c(=O)n(C2CC(O)C(CO)O2)cc1I (stereo not drawn) | 880 nM |
| NC(=O)c1cccc(Nc2nc(C(N)CCc3ccccc3)cs2)n1 (stereo not drawn) | 8640 nM |
| COc1ccc2c(c1)OC[C@H]1[C@H]2N2C(=O)c3ccc(F)cc3NC(=O)[C@@]2(C)[C@H]1c1ccccc1 | 1230 nM |
| CC(C)c1ccc(/C=N/NC(=O)c2ccccc2Cl)cc1 | 1910 nM |
| CC1=Nc2cc(C(=O)NCC3CCCO3)ccc2Sc2ccc(C)cc21 (stereo not drawn) | 662 nM |
| CC(=O)Nc1sc(C)c(C)c1C(=O)OCC(=O)N(CC(C)C)c1c(N)n(Cc2ccccc2)c(=O)[nH]c1=O | 4710 nM |
| COc1cc(/C=N/NC(=O)c2ccc(CSc3nc4ccccc4[nH]3)cc2)cc(OC)c1OC | 3980 nM |
| O=C(CCN1C(=O)/C(=C/c2cccs2)SC1=S)N1CCCCC1 | 1220 nM |
| COc1cc(NC(=O)c2ccc(-c3c(C)noc3C)c3ccoc23)cc(OC)c1OC | 3770 nM |
| Cc1ccc(S(=O)(=O)N2CCN(C(=O)COC(=O)c3cc([N+](=O)[O-])ccc3NCCO)CC2)c(C)c1 | 2430 nM |
| COc1cc(F)ccc1-c1csc(C(NC(C)=O)c2ccccc2)n1 (stereo not drawn) | 11.1 nM |
| COc1cc2c(cc1OC)C(c1cccs1)N(C(=O)c1cccnc1)CC2 (stereo not drawn) | 806 nM |
| COc1ccc(-c2nc3c(C(=O)NCCN(C)C)cccc3c3ccccc23)cc1 | 4160 nM |
| C/C(=N\O)C(=O)C(CN1CCCCC1)CN1CCCCC1 | 1500 nM |
| Cc1ccsc1CNc1ncnc2ccc(-c3c(C)noc3C)cc12 | 102 nM |

| SMILES | AC26 |
| --- | --- |
| C=C(C)Cc1c(C)c(C#N)c2nc3ccccc3n2c1NCCCN(C)C | 1080 nM |
| COc1ccc(C2Nc3ccc4ccccc4c3-c3c2c(=O)oc2ccccc32)cc1 (stereo not drawn) | 2070 nM |
| N=c1c(C(=O)NCc2ccco2)cc2c(=O)n3ccccc3nc2n1CCc1ccccc1 | 707 nM |
| CSCCOC(=O)c1[nH]c2c(c1C)C(=O)CC(c1ccco1)C2 (stereo not drawn) | 526 nM |
| COc1ccc(/C(C)=N/NC(=O)c2ccccc2OCc2ccccc2)c(OC)c1 | 121 nM |
| COc1ccc(Nc2nc(C)nc3sc4c(c23)CCC4)cc1O | 11400 nM |
| Cc1noc(C)c1-c1ccc(C(=O)NCCc2ccccc2)c2occc12 | 4410 nM |
| Cc1cc2nnc(SCC(=O)NCc3ccco3)n2c2ccccc12 | 1360 nM |
| CC12CC[C@H]3[C@@H](CCC4(O)C[C@H](O)CCC34/C=N/NC(=O)c3ccccc3[N+](=O)[O-])C1(O)CCC2C1=CC(=O)OC1 (stereo partly drawn) | 4280 nM |
| O=C(c1ccc2ncsc2c1)N1CCN(c2cccc(C(F)(F)F)c2)CC1 | 4190 nM |
| COc1cc(C(=O)OCCCN2CCCN(CCCOC(=O)c3cc(OC)c(OC)c(OC)c3)CC2)cc(OC)c1OC | 1550 nM |
| CN(C)S(=O)(=O)c1ccc(N2CCCC2)c(C(=O)Nc2ccccc2)c1 | 957 nM |
| O=C(/C=C/c1ccc(-c2ccccc2[N+](=O)[O-])o1)c1ccc(Br)cc1 | 4780 nM |
| CC(Nc1nc(-c2ccccc2)nc2ccccc12)c1ccccc1 (stereo not drawn) | 80.3 nM |
| COc1ccc(Cl)cc1NC(=O)Nc1ccc(C(=O)N2CCCC2)cc1 | 4030 nM |
| CN1C(=O)c2cccc3c(S(=O)(=O)Nc4ccccn4)ccc1c23 | 5030 nM |
| COc1ccc(C(=O)c2cc(OC)c(OC)c(OC)c2)cc1OC | 1250 nM |
| Cc1cc(C)c2sc(NC(=O)c3ccc([N+](=O)[O-])o3)nc2c1 | 6640 nM |
| COc1ccc(-n2c(=S)[nH]c3cc(C(=O)Nc4ccc(C)c(F)c4)ccc3c2=O)c(OC)c1 | 9690 nM |
| Cc1ccc(NC(=O)c2ncn(CCCNCc3ccccc3)n2)cc1C | 800 nM |

— PubChem BioAssay AID624491 (Broad Institute, 2012)
